According to US10682360B2, “Antimicrobial formulations and applications thereof” (priority 2014, dated 2020):

Assays:
[1] = system: Staphylococcus aureus 33592 (MRSA); test: ASTM E2315 suspension time-kill procedure; assay type: cell-based; conditions: contact time 2 hours; for CFU/mL / % Reduction / Log10 reduction: S. aureus 33592; for % Reduction / Log10 reduction: vs time zero control
Protocol: (§1) Efficacy of these substances, alone and in combination, was tested against two strains of bacteria using the ASTM E2315 test method.
(2) Staphylococcus aureus 33592 (MRSA): This is a Gram-positive, coccus-shaped aerobe that is resistant to methicillin, a penicillin derivative. Rapid reproduction and resistance to antibiotics can make S. aureus infections particularly difficult to treat. MRSA bacteria are resistant to drying and can survive on surfaces and fabrics for an extended period of time.
(§2) ASTM E2315 is a quantitative test method designed to assess changes in the populations of a microorganism in an antimicrobial liquid suspension. The method can be conducted using contact times ranging from 10 seconds to 24 hours. The test method uses non-antimicrobial agents as controls to establish baselines for microbial reductions.
(§3) Test microorganisms were prepared in liquid culture medium. Suspensions of test microorganisms were standardized as needed by dilution in a buffered saline solution. Test and control substances were dispensed in identical volumes to sterile vessels.
(§4) Independently, test and control substances were inoculated with each test microorganism, then mixed and incubated. Control substances were immediately harvested and used to represent the concentration present at the start of the test.
(§5) At the conclusion of the contact time, a volume of liquid test solution was harvested and chemically neutralized. Test microorganisms were spun down and the cell pellet was resuspended in phosphate buffered saline (PBS) prior to inoculation of the test systems. 10 mL volumes of Dey/Engley neutralizer broth supplemented with 5% magnesium chloride and 35% polysorbate 80 were used for chemical neutralization. After chemical neutralization, test systems were filtered using a filtration manifold to recover surviving microorganisms.
(§6) Dilutions of neutralized test solution were assayed using appropriate growth media to determine surviving microorganism levels at each respective contact time. Reductions of microorganisms were calculated by comparing initial microbial concentrations to final microbial concentrations. The limit of detection for the assay was 10 CFU/mL.
(§7) Percent reduction of bacterial population was calculated according to the following equation, where A=number of viable test microorganisms in the test substance after the contact time and B=number of viable test microorganisms in the control substance immediately after inoculation. Log10 reduction was also calculated.
(§8) The experimental procedure of Example 1 was followed with the exception of substitutions of some antibiotics. Cefuroxime (a second generation cephalosporin) and/or ceftazidime (a third generation cephalosporin active against P. aeruginosa) were used to replace cefazolin.

[2] = system: Pseudomonas aeruginosa 9027; test: ASTM E2315 suspension time-kill procedure; assay type: cell-based; conditions: P. aeruginosa 9027, contact time 2 hours; for % Reduction / Log10 reduction: vs time zero control
Protocol: as §1
(1) Pseudomonas aeruginosa 9027: This is a Gram-negative, rod-shaped microorganism with a single flagellum. P. aeruginosa grows optimally under aerobic conditions but can use various electron acceptors to respire anaerobically as needed. This organism is an opportunistic pathogen with the ability to form resilient biofilms in human tissues under anaerobic conditions.
as §2, §3, §4, §5, §6, §7, §8

[3] = Example 2, time zero control 3.35 × 10^7 CFU/mL

Molecule: Cc1nnc(SCC2=C(C(=O)O)N3C(=O)[C@@H](NC(=O)Cn4cnnn4)[C@H]3SC2)s1 [Test 1, Cefazolin]
- CFU/mL ([1]; Example 1, time zero control 2.85 × 10^6 CFU/mL, ambient 25° C.): 1.44 × 10^5 CFU/mL
- % Reduction ([1]; Example 1): 94.96%
- Log10 reduction ([1]; Example 1): 1.30

Molecule: CO/N=C(\C(=O)N[C@@H]1C(=O)N2C(C(=O)O)=C(COC(N)=O)CS[C@H]12)c1ccco1 [Test 12, Cefuroxime]
- CFU/mL [2, 3]: 2.00 × 10^5 CFU/mL
- % Reduction ([2]; Example 2): 99.44%
- Log10 reduction ([2]; Example 2): 2.25
- antibacterial effect / interaction of the antibiotics, in words [2]: bactericidal

Molecule: CO/N=C(\C(=O)N[C@@H]1C(=O)N2C(C(=O)O)=C(COC(N)=O)CS[C@H]12)c1ccco1 [Test 8, Cefuroxime]
- CFU/mL ([1]; Example 2, time zero control 1.75 × 10^6 CFU/mL): 1.50 × 10^6 CFU/mL
- % Reduction ([1]; Example 2): 14.29%
- Log10 reduction ([1]; Example 2): 0.07
- antibacterial effect / interaction of the antibiotics, in words ([1]; S. aureus 33592 (MRSA)): less activity against MRSA than the first generation cephalosporin, cefazolin

Molecule: Polymyxin B [Test 5]
- CFU/mL ([2]; Example 1, time zero control 1.80 × 10^6 CFU/mL, limit of detection 10 CFU/mL): <1.00 × 10^1 CFU/mL
- % Reduction ([2]; Example 1): >99.9996%
- Log10 reduction ([2]; Example 1): >5.45
- antibacterial effect / interaction of the antibiotics, in words [2]: essentially complete elimination

Molecule: Polymyxin B [Test 11]
- CFU/mL [2, 3]: 1.00 × 10^3 CFU/mL
- % Reduction ([2]; Example 2): 99.997%
- Log10 reduction ([2]; Example 2): 4.55
